Assay results from patent publication US4931569A, “Purification of stable water-soluble dioxetanes” (Tropix, Inc., priority 1988, dated 1990).
Structures can show the parent of a compound that is named as a salt.

Legend:
[1] = stability of the dioxetane in solution or after lyophilization, followed by analytical HPLC; assay type: physicochemical
Procedure: Peak fractions from FIG. 3C were combined, lyophilized, then analyzed by analytical HPLC on a reversed phase PLRP-S analytical column with a gradient of acetonitrile in 0.1% NaHCO3 buffer, pH 8.6, as the mobile phase.
The AMPPD fraction from FIG. 4 was collected, freeze-dried, then fractionated on an analytical size column of Dynamax C-18 using as the mobile phase a gradient of acetonitrile in 0.1% ammonium acetate, pH 7.0.
The 6 minute AMPPD peak from FIG. 4, which eluted with 31% acetonitrile in 0.1% ammonium acetate buffer, pH 7.0, was stored overnight in this solution without concentration, then chromatographed by HPLC on an analytical Dynamax C-18 column in a gradient of acetonitrile in 0.1% ammonium acetate buffer, pH 7.0 (FIG. 6).
When, however, AMPPD in the 6-minute peak from preparative HPLC (FIG. 4) was stored in the presence of the ammonium acetate column effluent for long periods of time at 4° C.

alkaline phosphatase = alkaline phosphatase chemiluminescence assay (light emission, Turner 20E Luminometer; sensitivity plot); assay type: biochemical; conditions: for light emission upon reaction with alkaline phosphatase: peaks collected from preparative HPLC (FIG. 1), lyophilized, tested as substrate, FIG. 2
From the text: Another such method involves testing the 1,2-dioxetane derivative as a substrate for an enzyme in a chemiluminescence assay (see for example, Example 2 infra), and comparing its behavior to that of an authentic sample of highly pure substrate in the same assay. The light intensity produced per unit amount of the substrate is directly proportional to the degree of purity of the substrate, when compared to the light intensity produced by the highly pure sample. When the light intensity produced from pure and impure substrate is plotted as a function of the molar concentration of the biochemical analyte, a family of parallel sigmoid curves is produced; this is called a sensitivity plot. The sensitivity curve for an impure sample will be shifted to the right of the curve for a pure sample; that is, the assay is less sensitive when using the impure sample. The greater the degree of impurity, the greater the shift of the sensitivity curve to the right. Purification of the crude reaction products of the chemical syntheses of the chemiluminescent, water-soluble 1,2 dioxetane derivatives by the methods of this invention will increase the sensitivity of the assay using the dioxetane product by at least 2-fold, preferably about 10-fold (see Example 6, FIG. 9).
The breakdown product and the AMPPD from FIG. 1 were collected, dried by lyophilization, then tested as a substrate for alkaline phosphatase in a chemiluminescence assay. The details of this assay are provided in copending U S. Pat. Application Ser. No. 889,823, which is incorporated herein by reference to the extent that it discloses assay conditions for alkaline phosphatase. Light emission was determined in a Turner 20E Luminometer.
The alkaline phosphatase chemiluminescent assay was applied to a relatively crude sample of AMPPD from Example 4, FIG. 5, and to an HPLC purified sample of AMPPD from Example 3, FIG. 3D. Light intensity produced in the chemiluminescent assay was plotted as a function of the molar concentration of alkaline phosphatase in the assay mixture (FIG. 9).

Row | SMILES | stability on brief (overnight) storage in ammonium acetate buffer ([1]; 31% acetonitrile in 0.1% ammonium acetate buffer, pH 7.0, without concentration, FIG. 6) | stability in water ([1]; desalted and non-desalted preparations, analytical HPLC on PLRP-S, FIG. 3D) | stability after lyophilization in the presence of ammonium ions ([1]; freeze-dried from 0.1% ammonium acetate buffer, pH 7.0, analytical HPLC on Dynamax C-18, FIG. 5) | stability on long-term storage in ammonium acetate column effluent ([1]; long periods of time at 4° C. in the dark, analytical HPLC on Dynamax C18, FIG. 7) | sensitivity of the chemiluminescent assay relative to crude AMPPD (alkaline phosphatase; HPLC purified sample (FIG. 3D) vs crude sample (FIG. 5), at all concentrations of alkaline phosphatase, FIG. 9) | light emission upon reaction with alkaline phosphatase (alkaline phosphatase) | lowest concentration of alkaline phosphatase that could be detected (alkaline phosphatase; with purified AMPPD as substrate)
1 | COC1(c2cccc(OP(=O)(O)O)c2)OOC12C1CC3CC(C1)CC2C3 (centres unmarked) [AMPPD, 3-(2'-spiroadamantane)-4-methoxy-4-(3"-phosphoryloxy)phenyl-1,2-dioxetane disodium salt] | did not lead to significant breakdown | stable for long periods | unstable | increased breakdown | at least an order of magnitude greater | typical of AMPPD | about 10^-15 M
2 | COC(=O)c1cccc(OP(=O)(O)O)c1 [Breakdown Product] | – | – | – | – | – | no light emission | –
